Assay results published in patent US20080181971A1, “Combination Cancer Treatments Comprising Elsamitrucin and Other Agents” (priority 2007, published 2008).
Several values for one entry are separate records, joined by “and”; a condition that tells them apart may be missing. Identical values can stand only once. Like-named read-outs stand apart in the source and are kept apart here.

Columns and labels:
[1] = test system: HT29 human colon carcinoma cell line; test: MTT growth inhibition assay, single agents and fixed-ratio combinations with elsamitrucin (Chou-Talalay, CalcuSyn), HT29; format: cell-based
Method: These individual agents and their combinations were evaluated for in vitro activity against the HT29 colon carcinoma, SKMES non-small cell lung carcinoma, and Daudi B-lymphoblastic cell lines. Cell growth in 96-well microculture plates was determined with a semi-automated MTT assay. Efficacies of drug combinations were analyzed according to the methods of Chou and Talalay, utilizing CalcuSyn software. Twenty-one in vitro experiments were conducted to determine the individual and combined growth inhibitory activities of elsamitrucin and the ten selected agents in the three cell lines.
b. Cell Lines. The human HT29 colon carcinoma, SKMES non-small cell lung carcinoma, and Daudi B-lymphoblastic cell lines were originally obtained from ATCC (American Type Culture Collection). These cell lines have been maintained and stored as frozen stocks. […] The medium for Daudi cells was additionally supplemented with 1 mM sodium pyruvate.
c. Growth Inhibition Assay. Anti-proliferative activities against the HT29, SKMES, and Daudi cell lines were evaluated in vitro by the MTT assay. Cells (1,500-2,000 cells/well) were seeded in a 96-well microculture plate in 180 pL of medium/well. […] DMSO was present in all wells at a final concentration of 0.1%. […] When the appropriate cell density was attained in the control wells, the plates were centrifuged briefly, and 100 pL of the growth medium was removed. The cell cultures were incubated with 50 μL of MTT reagent (1 mg/mL in Dulbecco's phosphate-buffered saline) for 4 hr at 37° C. The resultant purple formazan precipitate was solubilized with 200 μL of 0.04 N HCl in isopropanol.
The results of each experiment were stored in Excel format.
d. Preliminary Experiments: Design and Data Analysis. […] The initial experiments utilized serial three-fold dilutions of the drugs to produce ten test concentrations over a broad concentration range. Based on the initial results, a narrower concentration range was selected, and serial 1:1.5 dilutions were utilized to produce ten test concentrations. Experiments were repeated as needed.
For assays that utilized lower dilution factors to produce narrower concentration ranges, the results were analyzed with both Prism and CalcuSyn (as described below) to allow comparison of the IC50 and Da, values. The results guided the selection of appropriate concentration ranges and concentration ratios for the combination experiments.
e. Combination Experiments: Design and Data Analysis. The fixed-ratio design of Chou was used for the combination experiments. For each experiment, the drug solutions were mixed at a ratio that was expected to provide approximately equipotent concentrations, and the mixture was serially diluted with medium containing 1% DMSO to yield 10× stock solutions of the test concentrations. […] Each agent was tested individually and in combination at seven concentrations. The concentration range selected for each assay was designed to bracket the concentrations that produced half-maximal effects (ED50) with each single agent and their mixture. The concentrations used for the single-drug assays were twice as high as their concentrations in the mixture. Each assay was performed in quadruplicate. For each drug combination, the individual agents and their mixture were assayed on the same 96-well plate. The effects of the individual drugs and their combinations were analyzed by the method of Chou and Talalay. The results of each experiment were entered into CalcuSyn (BIOSOFT) for dose-effect analysis.
where Acontrol and Adrug are the respective absorbances of vehicle control and drug-treated wells in the MIT assay.
where the slope, m, is related to the sigmoidicity of the dose-effect curve, with m=1, >1, and <1 indicating hyperbolic, sigmoidal, and reverse sigmoidal shapes, respectively.

[2] = i.p., qd x5; cited from earlier work
[3] = HCT116-e256 study: toxicity (body weight, treatment-related deaths, clinical signs); format: in vivo, nude mice
From the text: f. Toxicity. Animals were weighed daily for the first five days of the study and then twice weekly. […] Acceptable toxicity is defined as a group mean body-weight loss of less than 20% during the study and not more than one treatment-related (TR) death among ten treated animals. […] A death was classified as TR if attributable to treatment side effects as evidenced by clinical signs and/or necropsy, or may be classified as TR if due to unknown causes during the dosing period or within 10 days of the last dose. A death was classified as an NTR if there is no evidence that death was related to treatment side effects.

[4] = test system: HCT116 human colon carcinoma; conditions: i.v., qod x5; cited from earlier work
[5] = Homo sapiens, HT-29, SPA-01 (HT29-e21), single agent, dilution 1:3, read-out: Prism IC50
[6] = Homo sapiens, HT-29, SPA-04 (HT29-e22), single agent, dilution 1:1.5, read-out: CalcuSyn Dm
[7] = Homo sapiens, HT-29, SPA-04 (HT29-e22), single agent, dilution 1:1.5, read-out: Prism IC50
[8] = Homo sapiens, HT-29, average of preliminary single-agent experiments, HT29, read-out: Average IC50, Dm value
[9] = Groups 2,4,6,8,10: elsamitrucin 10 mg/kg ip q4d x3, paclitaxel 15 mg/kg iv qod x5, cisplatin 2.7 mg/kg ip qd x5
[10] = Groups 3,5,7,9,11: elsamitrucin 5 mg/kg ip q4d x3, paclitaxel 7.5 mg/kg iv qod x5, cisplatin […] ip qd x5

| SMILES | IC50 [1, 5] | IC50 [1, 6] | IC50 [1, 7] | IC50 [1, 8] | Day of Mean BW Nadir [3, 9] | Mean BW Nadir (lowest group mean body weight, as % change from Day 1) [3, 9] | No. of NTR (non-treatment-related death) [3, 9] | No. of TR (treatment-related death) [3, 9] | No. of NTR (non-treatment-related death) [3, 10] | No. of TR (treatment-related death) [3, 10] | other results |
| --- | --- | --- | --- | --- | --- | --- | --- | --- | --- | --- | --- |
| N.N.[Cl][Pt][Cl] [Cisplatin, cisplatin] | – | – | – | – | – | – | – | – | – | – | decrease of Dm in the combination ([1]; HT29, in combination with elsamitrucin versus single agent): 38%; IC50 ([1]; HT29, single agent on the same plate as the combination, read-out: Dm Value, Individually, Second Agent): 2330 nM and 1750 nM; IC50 ([1]; SPA-01 (HT29-e21), single agent, dilution 1:3, read-out: Prism IC50): 1850 nM; IC50 ([1]; SPA-04 (HT29-e22), single agent, dilution 1:1.5, read-out: CalcuSyn Dm): 1930 nM; IC50 ([1]; SPA-04 (HT29-e22), single agent, dilution 1:1.5, read-out: Prism IC50): 1860 nM; IC50 ([1]; average of preliminary single-agent experiments, HT29, read-out: Average IC50, Dm value): 1880 nM; MTD revealed in previous studies [2]: 2.7 mg/kg |
| CO[C@@H]1[C@@H](N)[C@@H](O[C@H]2[C@H](Oc3cccc4c(O)c5c(=O)oc6ccc(C)c7c(=O)oc(c34)c5c67)O[C@H](C)[C@H](O)[C@]2(C)O)O[C@H](C)[C@@H]1O [Elsamitrucin, benzo(h)(1)benzopyrano(5,4,3-cde)(1)ebnzopyran-5,12-dione,10((2-O-(2-amino-2,6-dideoxy-3-O-methyl-alpha-D-galactopyranosyl)-6-deoxy-3-C-methyl-beta-D-galactopyranosyl)oxy)-6-hydroxy-1-methyl] | 80 nM | 81 nM | 70 nM | 77 nM | 7 days | −8.4% | 0 | 0 | 0 | 0 | IC50 ([1]; HT29, single agent on the same plate as the combination, read-out: Dm Value, Individually, Elsamitrucin): 36 nM and 118 nM and 96 nM and 58 nM and 54 nM and 67 nM and 39 nM and 40 nM and 103 nM and 51 nM and 37 nM and 29 nM and 86 nM and 73 nM and 50 nM and 71 nM and 124 nM and 32 nM and 27 nM; IC50 ([1]; Homo sapiens, HT-29, HT29, Table 1, read-out: average Dm determined in the preliminary experiments): 77 nM; IC50 ([1]; Homo sapiens, HT-29, HT29, single agent, ten selected assays of Table 2, read-out: average Dm): 63 nM; IC50 ([1]; Homo sapiens, HT-29, HT29, single agent, ten selected assays of Table 2, read-out: range of Dm): 36 to 118 nM; IC50 ([1]; Homo sapiens, HT-29, HT29 cells, single agent, read-out: average Dm): 63 nM; Day of Mean BW Nadir [3, 10]: 7 days; Mean BW Nadir (lowest group mean body weight, as % change from Day 1) ([3]; Groups 3,5,7,9,11: elsamitrucin 5 mg/kg ip q4d x3, paclitaxel 7.5 mg/kg iv qod x5, cisplatin […] ip qd x5, — indicates no decrease in mean body weight was observed): −4.8%; group body weight loss ([3]; elsamitrucin 10 mg/kg, in monotherapy and in the combinations): modest group BW losses |
| CC(=O)O[C@H]1C(=O)[C@@]2(C)[C@H]([C@H](OC(=O)c3ccccc3)[C@]3(O)C[C@H](OC(=O)[C@H](O)[C@@H](NC(=O)c4ccccc4)c4ccccc4)C(C)=C1C3(C)C)[C@]1(OC(C)=O)CO[C@@H]1C[C@@H]2O [Paclitaxel, paclitaxel] | 1.6 nM | 2.3 nM | 2.4 nM | 2 nM | 7 days | −4.6% | 0 | 0 | 0 | 0 | IC50 ([1]; Homo sapiens, HT-29, HT29, single agent on the same plate as the combination, read-out: Dm Value, Individually, Second Agent): 3.2 nM; optimum therapeutic dose identified in previous studies [4]: 30 mg/kg |
